Measurements taken from patent US20080255177A1, “ANTI-TUMOR ACTIVITY OF CCI-779 IN PAPILLARY RENAL CELL CANCER” (Wyeth, priority 2007, published 2008).
Several values for one entry are separate records, joined by “and”; a condition that tells them apart may be missing. Equal values may be shown once.

Tested on: advanced metastatic renal cell carcinoma
Assay: Phase III study of CCI-779 (temsirolimus) vs αIFN as first-line therapy
Assay type: in vivo
Settings: for OS median: first-line, αIFN 3 MU escalating to 18 MU s.c. 3 times/week or CCI-779 25 mg i.v. weekly
Text: In this phase III study, 626 advanced metastatic renal cell carcinoma patients from 26 countries were randomized to αIFN or CCI-779 (temsirolimus) as first-line therapy. This group is a very poor prognosis group of patients with many risk factors for early death. Patients received 3 million units (MU) of αIFN-alone subcutaneously 3 times/week, escalating to 18 MU or 25-mg CCI-779 intravenous infusion weekly.
Eligibility for this study required histologically confirmed, advanced (stage IV or recurrent disease) RCC with no prior systemic therapy for the disease. Subjects with central nervous system metastases, prior anticancer therapy for RCC and prior investigational therapy/agents within 4 weeks of randomization were excluded from the study.
The primary objective of this study was efficacy with a primary endpoint of overall survival. Secondary objectives of this study were safety, health outcomes, and additional efficacy endpoints. The secondary efficacy endpoints of this study were an evaluation of progression-free survival, response rate (complete and partial responses), clinical benefit rate, the duration of overall response, time to treatment failure, and health outcomes measurements. In addition, subject responses across all 3 treatment arms were evaluated based on screening tumor expression of proteins involved in the AKT-mTOR pathway. Other planned and post-hoc analyses were performed to assess influence of tumor histology (clear cell vs. non-clear cell), age (vs. >/=), and prognostic-risk groups (intermediate vs. poor).

[1] = patients <65yo, previously untreated advRCC, vs. αIFN
[2] = patients with clear-cell tumor histology
[3] = patients with other (non clear-cell) tumor histology
[4] = previously untreated clear-cell advRCC, vs. αIFN
[5] = previously untreated non clear-cell advRCC, TEMSR alone vs. αIFN

CO[C@H]1C[C@@H]2CC[C@@H](C)[C@@](O)(O2)C(=O)C(=O)N2CCCC[C@H]2C(=O)O[C@H]([C@H](C)C[C@@H]2CC[C@@H](OC(=O)C(C)(CO)CO)[C@H](OC)C2)CC(=O)[C@H](C)/C=C(\C)[C@@H](O)[C@@H](OC)C(=O)[C@H](C)C[C@H](C)/C=C/C=C/C=C/1C [TEMSR, rapamycin 42-ester with 3-hydroxy-2-(hydroxymethyl)-2-methylpropionic acid]
OS hazard ratio, TEMSR vs. αIFN (patients <65 years old): 0.62 and 0.61 | PFS hazard ratio, TEMSR vs. αIFN (patients <65 years old): 0.61 and 0.62 | OS improved by [1]: 64% | PFS prolonged by [1]: 61% | reduction in risk of death [1]: 39% | risk of death or disease progression reduced by [1]: 38% | difference in OS or PFS, TEMSR or αIFN (patients >/=65 years old): no difference | OS HR, TEMSR:IFN [2]: 0.82 | PFS HR, TEMSR:IFN [2]: 0.76 | PFS median [2]: 5.5 mo | OS median [2]: 10.7 mo | OS HR, TEMSR:IFN [3]: 0.49 | PFS HR, TEMSR:IFN [3]: 0.38 | PFS median [3]: 7.0 mo | OS median [3]: 11.6 mo | OS improved by [4]: 22% | PFS prolonged by [4]: 31% | reduction in risk of death [4]: 18% | risk of death or disease progression reduced by [4]: 24% | OS improved by [5]: 104% | PFS prolonged by [5]: 163% | reduction in risk of death [5]: 51% | risk of death or disease progression reduced by [5]: 62% | side effect profile vs. αIFN (stated for patients >/=65 years old): better side effect profile than αIFN
